In one assay the target is NAMPT (Homo sapiens (Human), UniProt P43490). In words: NAMPT biochemical inhibition assay (NMN quantified by mass spectrometry). As to conditions: NAMPT biochemical inhibition; read-out: Biochem IC50.
A further assay has as its system A2780 cells. In words: In-vitro cell proliferation assay (SRB), A2780 cells.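 Further: viable cell number read as SRB absorbance, background from media-only wells subtracted, IC50 interpolated from percent inhibition at two bracketing compound concentrations.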 As to conditions: A2780 cells, 72 hours, SRB, read-out: A2780 IC50. Format: cell-based.

Read-outs that look alike come from different tables or passages of the source.

Chain of NAMPT (P43490 whole entry): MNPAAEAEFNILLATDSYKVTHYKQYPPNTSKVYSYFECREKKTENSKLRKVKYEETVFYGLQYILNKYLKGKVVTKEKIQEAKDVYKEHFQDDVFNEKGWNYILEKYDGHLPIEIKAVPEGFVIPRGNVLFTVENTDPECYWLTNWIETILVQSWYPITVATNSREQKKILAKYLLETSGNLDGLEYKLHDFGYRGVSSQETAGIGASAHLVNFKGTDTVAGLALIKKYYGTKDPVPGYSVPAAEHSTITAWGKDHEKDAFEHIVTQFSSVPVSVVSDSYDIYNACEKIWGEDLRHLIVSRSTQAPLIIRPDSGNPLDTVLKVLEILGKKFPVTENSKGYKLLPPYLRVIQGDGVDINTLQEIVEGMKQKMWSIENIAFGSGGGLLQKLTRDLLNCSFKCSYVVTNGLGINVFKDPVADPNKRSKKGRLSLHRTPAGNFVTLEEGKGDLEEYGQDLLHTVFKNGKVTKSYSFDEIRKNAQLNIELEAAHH

On to `O=C(NCc1cccnc1)Nc1ccc(S(=O)(=O)c2cccc(F)c2)cc1` [3-{4-[(3-fluorobenzene)sulfonyl]phenyl}-1-(pyridin-3-ylmethyl)urea], for which the IC50 at NAMPT came to 1 nM; in the assay with A2780 cells (Homo sapiens, A2780, 72 h), 238 nM.
With `O=C(NCc1cccnc1)Nc1ccc(S(=O)(=O)N2CC[C@@]3(C2)OC(=O)c2ccccc23)cc1` [1-{4-[(1R)-3-oxo-3H-spiro[2-benzofuran-1,3′-pyrrolidine]-1′-ylsulfonyl]phenyl}-3-(pyridin-3-ylmethyl)urea], the IC50 was 5 nM on NAMPT and 41 nM with A2780 cells (Homo sapiens, A2780, 72 h).
Taken in the same sequence, the figures for `O=C(NCc1cccnc1)Nc1ccc(S(=O)(=O)Nc2ccccc2N2CCCCC2)cc1` [1-(4-{[2-(piperidin-1-yl)phenyl]sulfamoyl}phenyl)-3-(pyridin-3-ylmethyl)urea] were 4 nM and 18 nM.
Take `NS(=O)(=O)c1cccc(S(=O)(=O)c2ccc(NC(=O)NCc3cccnc3)cc2)c1` [1-(pyridin-3-ylmethyl)-3-{4-[(3-sulfamoylbenzene)sulfonyl]phenyl}urea]: the IC50 at NAMPT was 3.8 nM; in the assay on A2780 cells (Homo sapiens, A2780, 72 h), 100 to 1000 nM.
In the case of `N#Cc1ccc(S(=O)(=O)c2ccc(NC(=O)NCc3cccnc3)cc2)cc1` [1-{4-[(4-cyanobenzene)sulfonyl]phenyl}-3-(pyridin-3-ylmethyl)urea], the IC50 on NAMPT was 7.6 nM; in the assay on A2780 cells (Homo sapiens, A2780, 72 h) it was 100 to 1000 nM.
With `O=C(NCc1cccnc1)Nc1ccc(S(=O)(=O)N2Cc3cccc4cccc(c34)C2)cc1` [1-(4-{3-azatricyclo[7.3.1.0^5,^13]trideca-1(13),5,7,9,11-pentaene-3-sulfonyl}phenyl)-3-(pyridin-3-ylmethyl)urea], the IC50 at NAMPT is 2 nM; in the assay on A2780 cells it was 26 nM.
For `O=C(NCc1cccnc1)Nc1ccc(S(=O)(=O)c2cncc(F)c2)cc1` [3-[4-(5-fluoropyridine-3-sulfonyl)phenyl]-1-(pyridin-3-ylmethyl)urea], the IC50 on NAMPT was 8.7 nM; with A2780 cells (Homo sapiens, A2780, 72 h), 100 to 1000 nM.
In the case of `O=C(NCc1cccnc1)Nc1ccc(S(=O)(=O)c2cccc(Br)c2)cc1` [3-{4-[(3-bromobenzene)sulfonyl]phenyl}-1-(pyridin-3-ylmethyl)urea], the IC50 was found to be 2 nM at NAMPT and 322 nM in the assay with A2780 cells (Homo sapiens, A2780, 72 h).
With `CN(C)C(=O)c1cccc(S(=O)(=O)c2ccc(NC(=O)NCc3cccnc3)cc2)c1` [N,N-dimethyl-3-[(4-{[(pyridin-3-ylmethyl)carbamoyl]amino[benzene)sulfonyl]benzamide], the IC50 at NAMPT was 7.4 nM; with A2780 cells, 100 to 1000 nM.
Regarding `O=C(NCc1cccnc1)Nc1ccc(S(=O)(=O)c2cccc(-n3cccn3)c2)cc1` [1-(4-{[3-(1H-pyrazol-1-yl)benzene]sulfonyl}phenyl)-3-(pyridin-3-ylmethyl)urea], the IC50 on NAMPT worked out at 2.2 nM; in the assay on A2780 cells (Homo sapiens, A2780, 72 h) it was 98 nM.
As to `O=C(NCc1cccnc1)Nc1ccc(S(=O)(=O)N2CCC3(CCOC3)CC2)cc1` [1-(4-{2-oxa-8-azaspiro[4.5]decane-8-sulfonyl}phenyl)-3-(pyridin-3-ylmethyl)urea], the IC50 turned out to be 5 nM on NAMPT and 89 nM with A2780 cells (Homo sapiens, A2780, 72 h).
As to `CC(C)Oc1ccc(S(=O)(=O)c2ccc(NC(=O)NCc3cccnc3)cc2)cc1` [3-(4-{[4-(propan-2-yloxy)benzene]sulfonyl[phenyl)-1-(pyridin-3-ylmethyl)urea], the IC50 on NAMPT was found to be 1.7 nM; in the assay on A2780 cells (Homo sapiens, A2780, 72 h), 29.1 nM.
In the case of `O=C(NCc1cccnc1)Nc1ccc(S(=O)(=O)N2CCNCC2)cc1` [1-[4-(piperazine-1-sulfonyl)phenyl]-3-(pyridin-3-ylmethyl)urea], the IC50 at NAMPT is 48.6 nM; with A2780 cells (Homo sapiens, A2780, 72 h) it was > 2000 nM.
Consider `O=C(NCc1cccnc1)Nc1ccc(S(=O)(=O)N2CCCN(Cc3ccccc3)CC2)cc1` [1-[4-(4-benzyl-1,4-diazepane-1-sulfonyl)phenyl]-3-(pyridin-3-ylmethyl)urea], for which the IC50 came out at 5 nM on NAMPT and 137 nM in the assay with A2780 cells (Homo sapiens, A2780, 72 h).
As for `O=C(NCc1cccnc1)Nc1ccc(S(=O)(=O)Nc2cccc(Cl)c2Cl)cc1` [3-{4-[(2,3-dichlorophenyl)sulfamoyl]phenyl}-1-(pyridin-3-ylmethyl)urea], the IC50 at NAMPT came to 2 nM; in the assay with A2780 cells (Homo sapiens, A2780, 72 h), 30 nM.
Regarding `O=C(NCc1cccnc1)Nc1ccc(S(=O)(=O)c2cc(C(F)(F)F)ccc2Cl)cc1` [3-(4-{[2-chloro-5-(trifluoromethyl)benzene]sulfonyl}phenyl)-1-(pyridin-3-ylmethyl)urea], the IC50 on NAMPT was 5 nM; with A2780 cells (Homo sapiens, A2780, 72 h), 339 nM.
The corresponding values for `Cc1ccc(S(=O)(=O)c2ccc(NC(=O)NCc3cccnc3)cc2)cc1F` [3-{4-[(3-fluoro-4-methylbenzene)sulfonyl]phenyl}-1-(pyridin-3-ylmethyl)urea] are 1 nM and 206 nM.
`COc1ccc2ccccc2c1S(=O)(=O)c1ccc(NC(=O)NCc2cccnc2)cc1` [3-[4-(2-methoxynaphthalene-1-sulfonyl)phenyl]-1-(pyridin-3-ylmethyl)urea]: the IC50 at NAMPT came to 2 nM; in the assay on A2780 cells (Homo sapiens, A2780, 72 h) it was 12 nM.
Regarding `O=C(NCc1cccnc1)Nc1ccc(S(=O)(=O)Nc2ccccc2N2CCCC2)cc1` [3-(pyridin-3-ylmethyl)-1-(4-{[2-(pyrrolidin-1-yl)phenyl]sulfamoyl}phenyl)urea], the IC50 at NAMPT stood at 13 nM; in the assay with A2780 cells (Homo sapiens, A2780, 72 h) it was 11 nM.
The corresponding values for `COc1ccc(S(=O)(=O)c2ccc(NC(=O)NCc3cccnc3)cc2)c(C)c1` [3-{4-[(4-methoxy-2-methylbenzene)sulfonyl]phenyl}-1-(pyridin-3-ylmethyl)urea] are 8 nM and 352 nM.
On to `O=C(NCc1cccnc1)Nc1ccc(S(=O)(=O)N2CCN(C(c3ccc(F)cc3)c3ccc(F)cc3)CC2)cc1` [3-(4-{4-[bis(4-fluorophenyl)methyl]piperazine-1-sulfonyl}phenyl)-1-(pyridin-3-ylmethyl)urea], for which the IC50 on NAMPT was found to be 5 nM; with A2780 cells (Homo sapiens, A2780, 72 h) it was 7 nM.
Turning to `Cc1ccc(S(=O)(=O)c2ccc(NC(=O)NCc3cccnc3)cc2)s1` [3-[4-(5-methylthiophene-2-sulfonyl)phenyl]-1-(pyridin-3-ylmethyl)urea], the IC50 at NAMPT came to 3 nM; in the assay on A2780 cells (Homo sapiens, A2780, 72 h) it was 383 nM.
`COCCOc1ccc(CNC(=O)Nc2ccc(S(=O)(=O)c3ccccc3)cc2)cn1` [3-[4-(benzenesulfonyl)phenyl]-1-{[6-(2-methoxyethoxy)pyridin-3-yl]methyl}urea]: the IC50 was 2120 nM at NAMPT and > 10000 nM in the assay with A2780 cells (Homo sapiens, A2780, 72 h).
As for `CN(Cc1ccccc1)S(=O)(=O)c1ccc(NC(=O)NCc2cccnc2)cc1` [3-{4-[benzyl(methyl)sulfamoyl]phenyl}-1-(pyridin-3-ylmethyl)urea], the IC50 at NAMPT came to 1.1 nM; in the assay with A2780 cells (Homo sapiens, A2780, 72 h), 107 nM.
The corresponding values for `COc1cc(Cl)cc(S(=O)(=O)c2ccc(NC(=O)NCc3cccnc3)cc2)c1` [3-{4-[(3-chloro-5-methoxybenzene)sulfonyl]phenyl}-1-(pyridin-3-ylmethyl)urea] are 1.3 nM and 27.2 nM.
With `CN(Cc1cccc(F)c1)S(=O)(=O)c1ccc(NC(=O)NCc2cccnc2)cc1` [3-(4-{[(3-fluorophenyl)methyl](methyl)sulfamoyl}phenyl)-1-(pyridin-3-ylmethyl)urea], the IC50 at NAMPT turned out to be 2 nM; in the assay on A2780 cells (Homo sapiens, A2780, 72 h), 156 nM.
For the molecule `COc1cccc(S(=O)(=O)c2ccc(C(=O)NCc3ccc4nccn4c3)cc2)c1` [N-{imidazo[1,2-a]pyridin-6-ylmethyl}-4-[(3-methoxybenzene)sulfonyl]benzamide], the IC50 at NAMPT was found to be 19.2 nM; in the assay on A2780 cells (Homo sapiens, A2780, 72 h) it was 3.54 nM.
In the case of `O=C(NCc1ccc(F)c(F)c1)Nc1ccc(S(=O)(=O)N2CCCCC2)cc1` [1-[(3,4-difluorophenyl)methyl]-3-[4-(piperidine-1-sulfonyl)phenyl]urea], the IC50 at NAMPT turned out to be 92 nM; in the assay with A2780 cells (Homo sapiens, A2780, 72 h), 29000 nM.
With `Cn1ncc2cc(S(=O)(=O)c3ccc(NC(=O)NCc4cccnc4)cc3)ccc21` [3-[4-(1-methyl-1H-indazole-5-sulfonyl)phenyl]-1-(pyridin-3-ylmethyl)urea], the IC50 on NAMPT came out at 1.8 nM; in the assay with A2780 cells (Homo sapiens, A2780, 72 h), 92.5 nM.
As to `O=C(NCc1cccnc1)Nc1ccc(S(=O)(=O)c2ccc(Cl)c(Cl)c2)cc1` [3-{4-[(3,4-dichlorobenzene)sulfonyl]phenyl}-1-(pyridin-3-ylmethyl)urea], the IC50 on NAMPT is 2.9 nM; in the assay on A2780 cells (Homo sapiens, A2780, 72 h) it was 100 to 1000 nM.
Take `Cc1cc(F)cc(S(=O)(=O)c2ccc(NC(=O)NCc3cccnc3)cc2)c1` [3-{4-[(3-fluoro-5-methylbenzene)sulfonyl]phenyl}-1-(pyridin-3-ylmethyl)urea]: the IC50 at NAMPT was 1.7 nM; in the assay on A2780 cells (Homo sapiens, A2780, 72 h) it was 99.3 nM.
Take `O=C(NCc1cccnc1)Nc1ccc(S(=O)(=O)c2ccc(F)cc2F)cc1` [3-{4-[(2,4-difluorobenzene)sulfonyl]phenyl}-1-(pyridin-3-ylmethyl)urea]: the IC50 at NAMPT was found to be 1 nM; in the assay with A2780 cells (Homo sapiens, A2780, 72 h), 344 nM.
`O=C(NCc1cccnc1)Nc1ccc(S(=O)(=O)N(Cc2ccccc2)Cc2ccccc2)cc1` [1-[4-(dibenzylsulfamoyl)phenyl]-3-(pyridin-3-ylmethyl)urea]: the half-maximal inhibitory concentration (IC50) on NAMPT was 0.8 nM; in the assay with A2780 cells (Homo sapiens, A2780, 72 h), 0.3 nM.
Take `CS(=O)(=O)c1ccc(S(=O)(=O)c2ccc(NC(=O)NCc3cccnc3)cc2)cc1` [3-{4-[(4-methanesulfonylbenzene)sulfonyl]phenyl}-1-(pyridin-3-ylmethyl)urea]: the IC50 at NAMPT was determined as 2 nM; in the assay on A2780 cells (Homo sapiens, A2780, 72 h) it was 91 nM.
With `COc1cc(-n2cccn2)ccc1S(=O)(=O)c1ccc(NC(=O)NCc2cccnc2)cc1` [3-(4-{[2-methoxy-4-(1H-pyrazol-1-yl)benzene]sulfonyl}phenyl)-1-(pyridin-3-ylmethyl)urea], the IC50 on NAMPT was 2 nM; in the assay with A2780 cells (Homo sapiens, A2780, 72 h), 3 nM.
Take `O=C(NCc1cccnc1)Nc1ccc(S(=O)(=O)N2CC[C@H]3CCCC[C@@H]3C2)cc1` (relative stereo) [rel-3-{4-[(4aR,8aS)-decahydroisoquinoline-2-sulfonyl]phenyl}-1-(pyridin-3-ylmethyl)urea]: the IC50 at NAMPT was determined as 2 nM; in the assay on A2780 cells (Homo sapiens, A2780, 72 h), 101 nM.

What is called IC50 is the concentration needed to halve the response being measured.

The values are drawn from patent publication US11279687B2, “Compounds and compositions for the inhibition of NAMPT” (Valo Health, Inc., priority 2010, dated 2022).
